The record followed here is US20040176431A1, “Antiproliferative 2-(sulfo-phenyl)-aminothiazole derivatives and pharmaceutical compositions, and methods for their use” (Pfizer, Inc., priority 2003, published 2004).

Structures can show the parent of a compound that is named as a salt.

For one assay, the target named is T1, CDK2/cyclin A (Homo sapiens, UniProt P24941).
T1 construct: made in house; host or cells: CDK2: insect cells (baculovirus); cyclin A: E. coli, then limited proteolysis
As to the kind of experiment: Inhibition of CDK2/Cyclin A retinoblastoma kinase activity. Format: biochemical. The settings on record: apparent Ki, Rb fragment substrate. The procedure:
Cyclin-dependent kinase activity was measured by quantifying the enzyme-catalyzed, time-dependent incorporation of radioactive phosphate from [^32P]ATP or [^33P]ATP into a protein substrate. Unless noted otherwise, assays were performed in 96-well plates in a total volume of 50 μL, in the presence of 10 mM HEPES (N-[2-hydroxyethyl]piperazine-N′-[2-ethanesulfonic acid]) (pH 7.4), 10 mM MgCl2, 25 μM adenosine triphosphate (ATP), 1 mg/mL ovalbumin, 5 μg/mL leupeptin, 1 mM dithiothreitol, 10 mM β-glycerophosphate, 0.1 mM sodium vanadate, 1 mM sodium fluoride, 2.5 mM ethylene glycol-bis(β-aminoethyl ether)-N,N,N′N′-tetraacetic acid (EGTA), 2% (v/v) dimethylsulfoxide, and 0.03-0.4 μCi [^32/33P]ATP per reaction. Reactions were initiated with enzyme, incubated at 30° C., and terminated after 20 minutes by the addition of ethylenediaminetetraacetic acid (EDTA) to 250 mM. The phosphorylated substrate was then captured on a nitrocellulose or phosphocellulose membrane using a 96-well filtration manifold, and unincorporated radioactivity was removed by repeated washing with 0.85% phosphoric acid. Radioactivity was quantified by exposing the dried membranes to a phosphorimager.
Inhibition was measured relative to control wells that contained all reaction components including 2% (v/v) DMSO but no compound, after subtraction of background radioactivity measured in the absence of enzyme. Apparent Ki values of discrete compounds were measured by assaying enzyme activity in the presence of different inhibitor compound concentrations and subtracting the background radioactivity measured in the absence of enzyme. The kinetic parameters (kcat, Km for ATP) were measured for each enzyme under the usual assay conditions by determining the dependence of initial rates on ATP concentration. Inhibition data were fit to an equation for competitive inhibition using Kaleidagraph (Synergy Software), or were fit to an equation for competitive tight-binding inhibition using the software KineTic (BioKin, Ltd.).
CDK2 was purified using published methodology (Rosenblatt et al., J. Mol. Biol., 230, 1317-1319 (1993)) from insect cells that had been infected with a baculovirus expression vector. Cyclin A was purified from E. coli cells expressing full-length recombinant cyclin A, and a truncated cyclin A construct was generated by limited proteolysis and purified as described previously (Jeffrey et al., Nature, 376, 313-320 (1995)). A complex of CDK2 and proteolyzed cyclin A was prepared and purified by gel filtration. The substrate for this assay was the same Rb substrate fragment used for the CDK4 assays, and the methodology of the CDK2/delta cyclin A and the CDK4/delta cyclin D3 assays was essentially the same, except that CDK2 was present at 10 nM or 19 nM. The duration of the assay was 60 or 75 minutes, during which the time-dependence of product formation was linear and initial rate conditions were met.

The test system of the next assay is HCT-116 cells. The assay can be described thus: Inhibition of cell growth (MTT tetrazolium salt assay). It counts as cell-based. The settings on record: Homo sapiens; for IC50: read-out: HCT116 IC50; for IC90: read-out: HCT116 IC90. The method, then: Inhibition of cell growth was measured using the tetrazolium salt assay, which is based on the ability of viable cells to reduce 3-(4,5-dimethylthiazol-2-yl)-2,5-[2H]-diphenyltetrazolium bromide (MTT) to formazan (Mosmann, J. Immunol. Meth., 65, 55-63 (1983)). The water-insoluble purple formazan product was then detected spectrophotometrically. HCT-116 cells were grown in 96-well plates. Cells were plated in the appropriate medium at a volume of 135 μl/well in either McCoy's 5A Medium. Plates were incubated for four hours before addition of inhibitor compounds. Different concentrations of inhibitor compounds were added in 0.5% (v/v) dimethylsulfoxide (15 μL/well), and cells were incubated at 37° C. (5% CO2) for four to six days (depending on cell type). At the end of the incubation, MTT was added to a final concentration of 0.2 mg/mL, and cells were incubated for 4 hours more at 37° C. After centrifugation of the plates and removal of medium, the absorbance of the formazan (solubilized in dimethylsulfoxide) was measured at 540 nm. […] All results were compared to control cells treated only with 0.5% (v/v) dimethylsulfoxide.
In general terms: Tetrazolium assays rely on reduction of a dye to a coloured formazan, in cell work by metabolically active cells.

For another assay, the target named is T2, CDK4/cyclin D3 (Homo sapiens, UniProt P11802).
T2 construct: made in house; host or cells: insect cells (baculovirus co-infection)
T2 sequence (P11802 whole entry): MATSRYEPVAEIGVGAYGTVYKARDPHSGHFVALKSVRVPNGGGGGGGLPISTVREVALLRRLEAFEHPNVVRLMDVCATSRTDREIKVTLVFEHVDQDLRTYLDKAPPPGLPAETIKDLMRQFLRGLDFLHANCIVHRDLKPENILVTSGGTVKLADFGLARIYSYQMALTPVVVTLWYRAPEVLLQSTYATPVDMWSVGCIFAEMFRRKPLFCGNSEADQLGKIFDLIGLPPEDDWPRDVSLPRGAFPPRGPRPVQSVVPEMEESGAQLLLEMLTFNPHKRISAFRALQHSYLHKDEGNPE
T2 sequence (P30281 1-264 partner limits assumed): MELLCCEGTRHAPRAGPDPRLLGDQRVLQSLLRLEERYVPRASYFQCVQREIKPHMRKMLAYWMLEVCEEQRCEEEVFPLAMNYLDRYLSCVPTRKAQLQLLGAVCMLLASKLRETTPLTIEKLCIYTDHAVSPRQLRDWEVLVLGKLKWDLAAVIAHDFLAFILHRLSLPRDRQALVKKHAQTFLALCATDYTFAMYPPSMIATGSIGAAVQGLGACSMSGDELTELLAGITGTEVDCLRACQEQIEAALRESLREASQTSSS
The assay can be described thus: Inhibition of CDK4/Cyclin D retinoblastoma kinase activity. It counts as biochemical. The following applies: for Ki: apparent Ki, Rb fragment substrate; for % Inhib CDK4/D @ 0.1 μM / inhibition at 0.1 µM: test compound at 0.1 μM; for % Inhib CDK4/D @ 1 μM / inhibition at 1 µM: test compound at 1 μM (head line shifted: 'mM' printed beside 'Structure'); for % Inhib CDK4/D @ 0.03 / inhibition at 0.03 µM: test compound at 0.03 (unit cell empty, head line shifted; μM); for inhibition at 0.1 µM: read-out: % Inhib CDK4/D @ 0.1 μM; for inhibition at 1 µM: read-out: % Inhib CDK4/D @ 1 μM; for inhibition at 0.03 µM: read-out: % Inhib CDK4/D @ 0.03. The method, boiled down: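 Human CDK4 with truncated cyclin D3 (1-264) from baculovirus-infected insect cells, 5 nM, phosphorylating His-tagged Rb fragment (386-928) with 25 μM [32P/33P]ATP in pH 7.4 HEPES/MgCl2, 2% DMSO, 30° C., 20 min (60 min for tight binders). Filter capture, phosphorimager; apparent Ki from competitive or tight-binding competitive fits.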

For `Nc1nc(Nc2ccc(SCCO)cc2)sc1C(=O)c1c(Cl)cccc1Cl` [Y(2), 4-Amino-5-(2,6-dichlorobenzoyl)-2-[4-(2-hydroxy-ethylthio)-phenylamino]-thiazole], the Ki at CDK2/cyclin A turned out to be 140 nM; at CDK4/cyclin D3, 7.6 nM. Further, in the assay on HCT-116 cells, the IC50 – broadly, the concentration needed to halve the response being measured – turned out to be 3900 nM. For the same compound, the IC90 (commonly the point of the concentration-response curve where the effect stands at 90%) in the assay with HCT-116 cells was found to be 13000 nM.
With `Nc1nc(Nc2ccc(S)cc2)sc1C(=O)c1c(Cl)cccc1Cl` [X(1), 4-Amino-5-(2,6-dichloro-benzoyl)-2-(4-mercapto-phenylamino)-thiazole], the Ki at CDK2/cyclin A stood at 520 nM.
In the case of `CNS(=O)(=O)c1ccc(Nc2nc(N)c(C(=O)c3c(F)cccc3F)s2)cc1` [C(108)*, reference compound], in the assay with HCT-116 cells, the IC50 is 400 nM and the IC90 is 1400 nM.
`C[S+]([O-])c1cccc(Nc2nc(N)c(C(=O)c3c(Cl)cccc3Cl)s2)c1` (stereo not drawn) [Z(1), 4-Amino-5-(2,6-benzoyl)-2-(3-methanesulfinyl-phenylamino)-thiazole]: on CDK2/cyclin A, the Ki stood at 450 nM.
In the case of `Nc1nc(Nc2ccc(Sc3ccccn3)cc2)sc1C(=O)c1c(Cl)cccc1Cl` [W(2), 4-Amino-5-(2,6-dichloro-benzoyl)-2-[4-(pyridin-2-ylthio)-phenylamino]-thiazole], the figures for the Ki on CDK2/cyclin A and on CDK4/cyclin D3 were 500 nM and 190 nM, respectively.
Take `Nc1nc(Nc2ccc(S(=O)(=O)c3ccncc3)cc2)sc1C(=O)c1c(Cl)cccc1Cl` [AA(3), 4-Amino-5-(2,6-dichlorobenzoyl)-2-[4-(pyridine-4-sulfonyl)-phenylamino]-thiazole]: the Ki at CDK2/cyclin A was 190 nM.
On to `CS(=O)(=O)c1cccc(Nc2nc(N)c(C(=O)c3c(Cl)cccc3Cl)s2)c1` [AA(1), 4-Amino-5-(2,6-dichloro-benzoyl)-2-(3-methanesulfonyl-phenylamino)-thiazole], for which, at CDK2/cyclin A, the Ki came out at 430 nM.
In the case of `Nc1nc(Nc2ccc(S(N)(=O)=O)cc2)sc1C(=O)c1c(F)cc(F)cc1F` [C(115)*, reference compound], in the assay with HCT-116 cells, the IC50 is 980 nM and the IC90 turned out to be 2100 nM.
With `Nc1nc(Nc2ccc(S(=O)(=O)NCc3ccco3)cc2)sc1C(=O)c1c(F)cccc1F` [Example A(22), 4-[4-Amino-5-(2,6-difluoro-benzoyl)-thiazol-2-ylamino]-N-furan-2-ylmethyl-benzenesulfonamide], in the assay with HCT-116 cells, the IC50 stood at 240 nM and the concentration for an effect of 90% (IC90) was 620 nM. Moreover, the Ki on CDK4/cyclin D3 amounted to 22 nM.
For `Nc1nc(Nc2ccc(S(=O)(=O)NCc3cc(Cl)ccc3Cl)cc2)sc1C(=O)c1c(F)cccc1F` [Example A(7), 4-[4-Amino-5-(2,6-difluoro-benzoyl)-thiazol-2-ylamino]-N-(2,5-dichloro-benzyl)-benzenesulfonamide], the Ki was determined as 11 nM on CDK2/cyclin A and 62 nM at CDK4/cyclin D3.
As to `Nc1nc(Nc2cccc(S)c2)sc1C(=O)c1c(Cl)cccc1Cl` [X(2)], the Ki at CDK2/cyclin A came to 1600 nM.
Turning to `CN(C)S(=O)(=O)c1ccc(Nc2nc(N)c(C(=O)c3c(F)cccc3F)s2)cc1` [C(109)*, reference compound], in the assay on HCT-116 cells, the IC50 was 1600 nM and the IC90 is 3000 nM.
On to `Cn1cncc1CNS(=O)(=O)c1ccc(Nc2nc(N)c(C(=O)c3c(F)cccc3F)s2)cc1` [A(38), 4-[4-Amino-5-(2,6-difluoro-benzoyl)-thiazol-2-ylamino]-N-(1-methyl-1H-imidazol-5-ylmethyl)-benzenesulfonamide Trifluoroacetic Acid Salt], for which the values for the Ki on CDK2/cyclin A and at CDK4/cyclin D3 were 0.48 nM and 3.9 nM, respectively.
On to `CC1(CS(=O)(=O)c2ccc(Nc3nc(N)c(C(=O)c4c(Cl)cccc4Cl)s3)cc2)CO1` (stereo not drawn) [DD(180)], for which, at CDK4/cyclin D3, the “% Inhib CDK4/D @ 0.1 μM” value is reported as 13%, the “% Inhib CDK4/D @ 1 μM” value turned out to be 4.2% and the “% Inhib CDK4/D @ 0.03” value is recorded as −14%.
Turning to `CC(=O)OCC[S+]([O-])c1ccc(Nc2nc(N)c(C(=O)c3c(Cl)cccc3Cl)s2)cc1` (stereo not drawn) [DD(117)], on CDK4/cyclin D3, the inhibition at 0.1 µM was determined as 52%, the inhibition at 1 µM came out at 61.1% and the inhibition at 0.03 µM is 16%.
As to `NC(=O)CCS(=O)(=O)c1ccc(Nc2nc(N)c(C(=O)c3c(Cl)cccc3Cl)s2)cc1` [DD(228)], on CDK4/cyclin D3, the “% Inhib CDK4/D @ 0.1 μM” value is recorded as 29%, the “% Inhib CDK4/D @ 1 μM” value is 43% and the “% Inhib CDK4/D @ 0.03” value turned out to be 1%.
On to `NC(=O)C[S+]([O-])c1cccc(Nc2nc(N)c(C(=O)c3c(Cl)cccc3Cl)s2)c1` (stereo not drawn) [DD(141)], for which, on CDK4/cyclin D3, the inhibition at 0.1 µM is 71%, the inhibition at 1 µM came to 64.5% and the inhibition at 0.03 µM amounted to 36%.
As for `COC(=O)C[S+]([O-])c1cccc(Nc2nc(N)c(C(=O)c3c(Cl)cccc3Cl)s2)c1` (stereo not drawn) [DD(146)], at CDK4/cyclin D3, the inhibition at 0.1 µM is 53%, the inhibition at 1 µM amounted to 47.6% and the inhibition at 0.03 µM is 15%.
In the case of `CC(C)OC(=O)CS(=O)(=O)c1ccc(Nc2nc(N)c(C(=O)c3c(Cl)cccc3Cl)s2)cc1` [DD(183)], on CDK4/cyclin D3, the “% Inhib CDK4/D @ 0.1 μM” value is on record as 17%, the “% Inhib CDK4/D @ 1 μM” value was found to be 1.9% and the “% Inhib CDK4/D @ 0.03” value is 8.6%.
As to `C=CCC[S+]([O-])c1cccc(Nc2nc(N)c(C(=O)c3c(Cl)cccc3Cl)s2)c1` (stereo not drawn) [DD(126)], at CDK4/cyclin D3, the inhibition at 0.1 µM turned out to be 28%, the inhibition at 1 µM came out at 43.1% and the inhibition at 0.03 µM amounted to 7.5%.
For the compound `CCC(CC)S(=O)(=O)c1ccc(Nc2nc(N)c(C(=O)c3c(Cl)cccc3Cl)s2)cc1` [DD(196)], on CDK4/cyclin D3, the inhibition at 0.1 µM is 15%, the inhibition at 1 µM stood at 14.4% and the inhibition at 0.03 µM was determined as 1.3%.
For the compound `Nc1nc(Nc2ccc(S(=O)(=O)CCN3CCCC3)cc2)sc1C(=O)c1c(Cl)cccc1Cl` [DD(207)], at CDK4/cyclin D3, the “% Inhib CDK4/D @ 0.1 μM” value is listed as 41%, the “% Inhib CDK4/D @ 1 μM” value was found to be 36.8% and the “% Inhib CDK4/D @ 0.03” value is reported as −9.9%.
In the case of `CCCS(=O)(=O)c1ccc(Nc2nc(N)c(C(=O)c3c(Cl)cccc3Cl)s2)cc1` [DD(185)], on CDK4/cyclin D3, the inhibition at 0.1 µM was 33%, the “% Inhib CDK4/D @ 1 μM” value turned out to be 22.3% and the “% Inhib CDK4/D @ 0.03” value turned out to be 8.5%.
`Nc1nc(Nc2ccc(S(=O)(=O)CC3CO3)cc2)sc1C(=O)c1c(Cl)cccc1Cl` (stereo not drawn) [DD(212)]: on CDK4/cyclin D3, the “% Inhib CDK4/D @ 0.1 μM” value is listed as 17%, the “% Inhib CDK4/D @ 1 μM” value was −14% and the “% Inhib CDK4/D @ 0.03” value is −16%.
`CC(C)=CC[S+]([O-])c1cccc(Nc2nc(N)c(C(=O)c3c(Cl)cccc3Cl)s2)c1` (stereo not drawn) [DD(144)]: at CDK4/cyclin D3, the inhibition at 0.1 µM is 12%, the inhibition at 1 µM was 27.7% and the inhibition at 0.03 µM was -66%.
`Nc1nc(Nc2ccc(S(=O)(=O)CC3CC3)cc2)sc1C(=O)c1c(Cl)cccc1Cl` [DD(176)]: on CDK4/cyclin D3, the inhibition at 0.1 µM was found to be 13%, the “% Inhib CDK4/D @ 1 μM” value amounted to 5.4% and the inhibition at 0.03 µM turned out to be 17%.
Turning to `COC(=O)/C=C/CSc1cccc(Nc2nc(N)c(C(=O)c3c(Cl)cccc3Cl)s2)c1` [DD(44)], on CDK4/cyclin D3, the inhibition at 0.1 µM stood at 31%, the inhibition at 1 µM came to 46% and the inhibition at 0.03 µM is 23%.
